Source: patent US5128331A, “Method for lowering plasma lipid levels or blood pressure” (priority 1988, dated 1992)
“Also recorded” adds a separate entry of the source. Like-named read-outs stand apart in the source and are kept apart here.

What was measured:
Format in all cases: in vivo
mice of the OF1 strain = test: Hypolipidemic activity: plasma cholesterol and plasma triglycerides in mice fed compound in chow; details: for change in vivo at 180 mg/kg: Mus musculus, feed or water, 240 h
Experimental: With the goal of finding new drugs which might be hypolipidemic, the new diphosphonates described in this patent application were administered orally to mice. This rodent species has plasma lipid level relatively close to man (generally greater than 150 mg/dl). For example, in mice receiving a normal diet the plasma cholesterol and triglyceride levels are in the range of 100 mg/dl, whereas for rat the comparative values are close to 50 mg/dl.
In every screening experiment, 30 mice of the OF1 strain weighing 25 to 35 g were divided into 5 groups of 6 animals each. Four groups received the compounds to be tested, or the reference drugs, the fifth group served as control. Compounds were dissolved in diethyl ether, and solution was added to the pelleted food and the ether was evaporated.
All compounds were tested at the final concentration of 0.1% in animal chow, equivalent to a daily intake of about 180 mg/kg. This diet was fed for 10 days, then after an overnight fasting the animals were sacrified by decapitation under ether anesthesia. Blood samples were collected in EDTA containing tubes.
Plasma cholesterol and plasma triglycerides were measured by enzymatic methods (Ames kit No. 6376 and No. 6630).

[1] = system: spontaneously hypertensive rat (SHR); test: Oral hypotensive activity in spontaneously hypertensive rats (SHR); details: for Percent change in blood pressure: 2 hours post dose, Table 5
Experimental: The spontaneously hypertensive rat (SHR) is a well established animal model of human arterial hypertension.
In screening experiments various gem-diphosphonates were dissolved in Tween-80 and administered orally to SH rats. Blood pressure was monitored hourly using a tailcuff method.

rat paw oedema = test: Anti-inflammatory activity: kappa carrageenan rat paw oedema model; details: for Inhibition of rat right hind paw volume increase, % Change from control: 4 hours post oedema induction, test compounds 100 mg/kg, indomethacin 30 mg/kg by gavage 1 hour prior; for anti-inflammatory activity (in words): rat paw oedema, 4 hours
Experimental: The effect of four selected diphosphates was investigated on the inflammatory response to kappa carrageenan in the rat paw oedema model. Eight male rats were employed per group. Oedema was induced in the right hind paw of each animal by a single injection into the plantar aponeurosis of 0.1 ml of a 1% w/v of kappa carrageena solution dissolved in 0.9% NaCl. The test compounds (100 mg/kg) and reference drug (indomethacin 30 mg/kg) were administered by gavage 1 hour prior to induction of oedema by carrageanan injection.
The volume of the right paw was measured for each animal at 0, 1, 2.5 and 4 hours after carrageenan injection (only 4 hour values are reported.

[2] = read-out: Cholesterol (% control)
[3] = read-out: Triglycerides (% control)
[4] = mice, 0.1% in animal chow (about 180 mg/kg daily), 10 days, Table 3, given as change from control, read-out: Cholesterol (% control)
[5] = mice, 0.1% in animal chow (about 180 mg/kg daily), 10 days, Table 3, given as change from control, read-out: Triglycerides (% control)

| SMILES | change in vivo at 180 mg/kg (mice of the OF1 strain; [2]) [%] | change in vivo at 180 mg/kg (mice of the OF1 strain; [3]) [%] | hypocholesterolemic activity (in words) (mice of the OF1 strain; mice, 0.1% in chow, 10 days) | hypotriglyceridemia (in words) (mice of the OF1 strain; mice, 0.1% in chow, 10 days) | hypotensive potency compared with reference drugs (in words) [1] | Percent change in blood pressure [1] [%] | Inhibition of rat right hind paw volume increase, % Change from control (rat paw oedema) | anti-inflammatory activity (in words) (rat paw oedema) | hypocholesterolemic potency (plasma cholesterol change) (mice of the OF1 strain; mice, 0.1% in chow, 10 days) [%] | change in vivo at 180 mg/kg (mice of the OF1 strain; [4]) [%] | change in vivo at 180 mg/kg (mice of the OF1 strain; [5]) [%] |
| --- | --- | --- | --- | --- | --- | --- | --- | --- | --- | --- | --- |
| CC(C)OP(=O)(OC(C)C)C(Cc1cc(C(C)(C)C)c(O)c(C(C)(C)C)c1)P(=O)(OC(C)C)OC(C)C [Compound 6] | -37 | -34 | hypocholesterolemic | significant hypotriglyceridemia | as potent as the reference drugs | -64 | – | – | – | – | – |
| COc1ccc2c(c1)c(CC(=O)O)c(C)n2C(=O)c1ccc(Cl)cc1 [Indomethacin, reference compound] | – | – | – | – | – | – | -92.3 % Change from control | prevented completely the increase in paw volume | – | – | – |
| CCCCOP(=O)(OCCCC)C(Cc1cc(C(C)(C)C)c(O)c(C(C)(C)C)c1)P(=O)(OCCCC)OCCCC [Compound 7, Tetrabutyl 2-(3,5-ditertiary-4-hydroxyphenyl)-ethylidene-1,1-diphosphonate] | -23 | -15 | hypocholesterolemic | significant hypotriglyceridemia | as potent as the reference drugs | -30 | – | – | – | – | – |
| CCOP(=O)(OCC)C(=Cc1cc(C(C)(C)C)c(O)c(C(C)(C)C)c1)P(=O)(OCC)OCC [Compound 33, Tetraethyl 2-(3,5-ditertiarybutyl-4-hydroxyphenyl)-ethenylidene-1,1-diphosphonate] | -40 | -21 | hypocholesterolemic | significant hypotriglyceridemia | – | – | -5.8 % Change from control | – | -40 | – | – |
| CC(C)(C)c1cc(CC(P(=O)(O)O)P(=O)(O)O)cc(C(C)(C)C)c1O [Compound 8, 2-(3,5-ditertiarybutyl-4-hydroxyphenyl)-ethylidene-1,1-diphosphonic acid] | – | – | – | – | – | – | -54.2 % Change from control | significant inhibitory activities; also recorded: anti-inflammatory | – | -2 | 19 |
| CC(C)(C)c1cc(C=C(P(=O)(O)O)P(=O)(O)O)cc(C(C)(C)C)c1O [Compound 36] | – | – | – | – | – | – | -25.0 % Change from control | significant inhibitory activities | – | -9 | -5 |
| CCOP(=O)(OCC)C(Cc1cc(C(C)(C)C)c(O)c(C(C)(C)C)c1)P(=O)(OCC)OCC [Compound 4, Tetraethyl 2-(3,5-ditertiarybutyl-4-hydroxyphenyl)-ethylidene-1,1-diphosphonate] | -12 | -1 | hypocholesterolemic | – | as potent as the reference drugs | -34 | +1.5 % Change from control | – | – | – | – |
| CCCCOP(=O)(OCCCC)C(Cc1cc(C(C)(C)C)c(O)c(C(C)(C)C)c1)P(=O)(OCC)OCC (stereo not drawn) [Compound 18] | -31 | 60 | hypocholesterolemic | – | as potent as the reference drugs | -41 | – | – | – | – | – |
